Reference: ChEMBL document CHEMBL1201862, “PubChem BioAssay data set” (2004)
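Assay format: 96-well plates, 48-hour exposure. GI50 is the concentration that inhibits growth by half.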 The source made the active and inactive calls. Rule as the data show it: active = GI50 up to about 1.1 µM and inactive = higher.

Tests used:
Assay in all cases: DTP human tumour cell line panel, 48 h
K562 = system: K562
M14 = system: M14
U-251 = system: U-251
OVCAR-8 = system: OVCAR-8
NCI/ADR-RES = system: NCI/ADR-RES
Hs-578T = system: Hs-578T
LOX IMVI = system: LOX IMVI
MDA-MB-231 = system: MDA-MB-231
MCF7 = system: MCF7
KM12 = system: KM12
T47D = system: T47D
SR = system: SR
RPMI-8226 = system: RPMI-8226
BT-549 = system: BT-549
HCT-116 = system: HCT-116
MDA-MB-435 = system: MDA-MB-435
OVCAR-3 = system: OVCAR-3
NCI-H23 = system: NCI-H23
SW-620 = system: SW-620
SF-539 = system: SF-539
CAKI-1 = system: CAKI-1
SF-268 = system: SF-268
SK-MEL-28 = system: SK-MEL-28
SK-MEL-2 = system: SK-MEL-2
ACHN = system: ACHN
HL-60 = system: HL-60
PC-3 = system: PC-3
UACC-62 = system: UACC-62
Malme-3M = system: Malme-3M
A549 = system: A549
MOLT-4 = system: MOLT-4
UACC-257 = system: UACC-257
786-0 = system: 786-0
SF-295 = system: SF-295
OVCAR-4 = system: OVCAR-4
COLO 205 = system: COLO 205
IGROV-1 = system: IGROV-1
SN12C = system: SN12C
SK-OV-3 = system: SK-OV-3
HT-29 = system: HT-29
RXF 393 = system: RXF 393
MDA-N = system: MDA-N
HOP-92 = system: HOP-92
SNB-75 = system: SNB-75
NCI-H460 = system: NCI-H460
HCC 2998 = system: HCC 2998
SK-MEL-5 = system: SK-MEL-5
HOP-62 = system: HOP-62
NCI-H226 = system: NCI-H226
DU-145 = system: DU-145
SNB-19 = system: SNB-19
EKVX = system: EKVX
NCI-H522 = system: NCI-H522
UO-31 = system: UO-31
CCRF-CEM = system: CCRF-CEM
TK-10 = system: TK-10
OVCAR-5 = system: OVCAR-5
HCT-15 = system: HCT-15

For `c1ccc2c(c1)cc1c3[nH]c4ccccc4c3ccn21`, the GI50 (K562) was > 10 µM (inactive), the GI50 (M14) was > 10 µM (inactive) and the GI50 (U-251) was > 10 µM (inactive). For the same compound, the GI50 (OVCAR-8) was > 10 µM (inactive), the GI50 (NCI/ADR-RES) was > 10 µM (inactive) and the GI50 (Hs-578T) was > 10 µM (inactive). The GI50 (LOX IMVI) was > 10 µM (inactive), the GI50 (MDA-MB-231) was > 10 µM (inactive) and the GI50 (MCF7) was 1.19 µM (inactive). For the same compound, the GI50 (KM12) was > 10 µM (inactive), the GI50 (T47D) was > 10 µM (inactive) and the GI50 (SR) was > 10 µM (inactive). The GI50 (RPMI-8226) was 4.59 µM (inactive), the GI50 (BT-549) was > 10 µM (inactive) and the GI50 (HCT-116) was 6.92 µM (inactive). For the same compound, the GI50 (MDA-MB-435) was > 10 µM (inactive), the GI50 (OVCAR-3) was > 10 µM (inactive) and the GI50 (NCI-H23) was > 10 µM (inactive). For the same compound, the GI50 (SW-620) was 6.78 µM (inactive), the GI50 (SF-539) was > 10 µM (inactive) and the GI50 (CAKI-1) was > 10 µM (inactive). The GI50 (SF-268) was > 10 µM (inactive), the GI50 (SK-MEL-28) was > 10 µM (inactive) and the GI50 (SK-MEL-2) was > 10 µM (inactive). For the same compound, the GI50 (ACHN) was > 10 µM (inactive), the GI50 (HL-60) was 0.687 µM (active) and the GI50 (PC-3) was > 10 µM (inactive). The GI50 (UACC-62) was > 10 µM (inactive), the GI50 (Malme-3M) was 1.65 µM (inactive) and the GI50 (A549) was > 10 µM (inactive). The GI50 (MOLT-4) was > 10 µM (inactive), the GI50 (UACC-257) was > 10 µM (inactive) and the GI50 (786-0) was > 10 µM (inactive). The GI50 (SF-295) was > 10 µM (inactive), the GI50 (OVCAR-4) was > 10 µM (inactive) and the GI50 (COLO 205) was 1.61 µM (inactive). The GI50 (IGROV-1) was > 10 µM (inactive), the GI50 (SN12C) was > 10 µM (inactive) and the GI50 (SK-OV-3) was > 10 µM (inactive). For the same compound, the GI50 (HT-29) was > 10 µM (inactive), the GI50 (RXF 393) was > 10 µM (inactive) and the GI50 (MDA-N) was > 10 µM (inactive). The GI50 (HOP-92) was > 10 µM (inactive), the GI50 (SNB-75) was > 10 µM (inactive) and the GI50 (NCI-H460) was > 10 µM (inactive). For the same compound, the GI50 (HCC 2998) was > 10 µM (inactive), the GI50 (SK-MEL-5) was > 10 µM (inactive) and the GI50 (HOP-62) was > 10 µM (inactive). The GI50 (NCI-H226) was > 10 µM (inactive), the GI50 (DU-145) was > 10 µM (inactive) and the GI50 (SNB-19) was > 10 µM (inactive). The GI50 (EKVX) was > 10 µM (inactive), the GI50 (NCI-H522) was > 10 µM (inactive) and the GI50 (UO-31) was > 10 µM (inactive). For the same compound, the GI50 (CCRF-CEM) was 8.32 µM (inactive), the GI50 (TK-10) was > 10 µM (inactive) and the GI50 (OVCAR-5) was > 10 µM (inactive). The GI50 (HCT-15) was > 10 µM.

For `COc1cc(CCCl)c(CC2=NCCc3cc(OC)c(OC)cc32)cc1OC`, the GI50 (K562) was 31 µM (inactive), the GI50 (M14) was 50.1 µM (inactive) and the GI50 (U-251) was > 100 µM (inactive). For the same compound, the GI50 (OVCAR-8) was > 100 µM (inactive), the GI50 (NCI/ADR-RES) was > 100 µM (inactive) and the GI50 (Hs-578T) was 14.9 µM (inactive). For the same compound, the GI50 (LOX IMVI) was 21.1 µM (inactive), the GI50 (MDA-MB-231) was 55.7 µM (inactive) and the GI50 (MCF7) was 88.9 µM (inactive). The GI50 (KM12) was 71.1 µM (inactive), the GI50 (T47D) was > 100 µM (inactive) and the GI50 (SR) was 23 µM (inactive). The GI50 (RPMI-8226) was 39.4 µM (inactive), the GI50 (BT-549) was > 100 µM (inactive) and the GI50 (HCT-116) was 24.4 µM (inactive). The GI50 (MDA-MB-435) was 89.9 µM (inactive), the GI50 (OVCAR-3) was > 100 µM (inactive) and the GI50 (NCI-H23) was > 100 µM (inactive). The GI50 (SW-620) was 85.5 µM (inactive), the GI50 (SF-539) was 4.61 µM (inactive) and the GI50 (CAKI-1) was 34 µM (inactive). For the same compound, the GI50 (SF-268) was 97.3 µM (inactive), the GI50 (SK-MEL-28) was > 100 µM (inactive) and the GI50 (SK-MEL-2) was > 100 µM (inactive). For the same compound, the GI50 (ACHN) was > 100 µM (inactive), the GI50 (HL-60) was 4.41 µM (inactive) and the GI50 (PC-3) was 41.1 µM (inactive). The GI50 (UACC-62) was 43.3 µM (inactive), the GI50 (A549) was > 100 µM (inactive) and the GI50 (MOLT-4) was > 100 µM (inactive). For the same compound, the GI50 (UACC-257) was > 100 µM (inactive), the GI50 (SF-295) was 19.8 µM (inactive) and the GI50 (OVCAR-4) was > 100 µM (inactive). For the same compound, the GI50 (COLO 205) was 47.4 µM (inactive), the GI50 (IGROV-1) was 29.4 µM (inactive) and the GI50 (SN12C) was 80.9 µM (inactive). For the same compound, the GI50 (SK-OV-3) was > 100 µM (inactive), the GI50 (HT-29) was 32.5 µM (inactive) and the GI50 (RXF 393) was 32.3 µM (inactive). The GI50 (MDA-N) was 70.1 µM (inactive), the GI50 (HOP-92) was > 100 µM (inactive) and the GI50 (SNB-75) was > 100 µM (inactive). The GI50 (NCI-H460) was > 100 µM (inactive), the GI50 (HCC 2998) was 61 µM (inactive) and the GI50 (SK-MEL-5) was 67.8 µM (inactive). For the same compound, the GI50 (HOP-62) was 20.8 µM (inactive), the GI50 (NCI-H226) was > 100 µM (inactive) and the GI50 (DU-145) was > 100 µM (inactive). For the same compound, the GI50 (SNB-19) was > 100 µM (inactive), the GI50 (EKVX) was 88.9 µM (inactive) and the GI50 (UO-31) was 69.3 µM (inactive). The GI50 (CCRF-CEM) was 45.7 µM (inactive), the GI50 (TK-10) was 30.2 µM (inactive) and the GI50 (OVCAR-5) was > 100 µM (inactive).
